Assay results as given in ChEMBL document CHEMBL1201862, “PubChem BioAssay data set” (2004).
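These data come from cells grown in 96-well plates and exposed to compound for 48 hours at five concentrations. GI50 marks 50% less growth.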 Active and inactive are the calls of the source. Rule as the data show it: active = GI50 up to about 1.1 µM and inactive = higher.

What was measured:
Assay in all cases: NCI anticancer screen, dose series, 48 h
[1] = tested on: MDA-N
[2] = tested on: UACC-257
[3] = tested on: HCT-15
[4] = tested on: HCC 2998
[5] = tested on: OVCAR-4
[6] = tested on: OVCAR-5
[7] = tested on: UO-31
[8] = tested on: MDA-MB-435
[9] = tested on: OVCAR-3
[10] = tested on: NCI-H23
[11] = tested on: SF-539
[12] = tested on: COLO 205
[13] = tested on: A498
[14] = tested on: CAKI-1
[15] = tested on: SN12C
[16] = tested on: ACHN
[17] = tested on: NCI/ADR-RES
[18] = tested on: SNB-75
[19] = tested on: K562

SMILES: CC(C)=CC1CC(C)C2(CCC3(C)CC4C(C(=O)CC4(C)O)/C(C=O)=C\CC32)O1 (stereo not given)
- GI50 [1]: 0.112 µM (active)
- GI50 [2]: 0.12 µM (active)
- GI50 [3]: 0.0243 µM
- GI50 [4]: 0.178 µM (active)
- GI50 [5]: 0.0356 µM (active)
- GI50 [6]: 0.14 µM (active)
- GI50 [7]: 0.0355 µM (active)
- GI50 [8]: 0.0617 µM (active)
- GI50 [9]: 0.0224 µM (active)
- GI50 [10]: 0.0757 µM (active)
- GI50 [11]: 0.0933 µM (active)
- GI50 [12]: 0.0596 µM (active)
- GI50 [13]: 0.278 µM (active)
- GI50 [14]: 0.0604 µM (active)
- GI50 [15]: 0.0638 µM (active)
- GI50 [16]: 0.0324 µM (active)
- GI50 [17]: 0.11 µM (active)
- GI50 [18]: 0.142 µM (active)
- GI50 [19]: 0.0614 µM (active)

SMILES: CN(C)CCCNC(=O)CNC(=O)c1cc(NC(=O)c2cc(NC(=O)c3cc(NC(=O)CCNC(=O)c4cc(NC(=O)c5cc(NC(=O)c6nccn6C)cn5C)cn4C)cn3C)cn2C)cn1C
- GI50 [1]: > 100 µM (inactive)
- GI50 [2]: > 100 µM (inactive)
- GI50 [3]: > 100 µM
- GI50 [4]: > 100 µM (inactive)
- GI50 [5]: > 100 µM (inactive)
- GI50 [6]: > 100 µM (inactive)
- GI50 [7]: > 100 µM (inactive)
- GI50 [8]: > 100 µM (inactive)
- GI50 [9]: > 100 µM (inactive)
- GI50 [10]: > 100 µM (inactive)
- GI50 [11]: > 100 µM (inactive)
- GI50 [12]: > 100 µM (inactive)
- GI50 [13]: > 100 µM (inactive)
- GI50 [14]: > 100 µM (inactive)
- GI50 [15]: > 100 µM (inactive)
- GI50 [16]: > 100 µM (inactive)
- GI50 [17]: > 100 µM (inactive)
- GI50 [18]: 41.3 µM (inactive)
- GI50 [19]: 59.4 µM (inactive)

SMILES: Cn1cc2c3ccccc3nc-2c2ccccc21 [ISOCRYPTOLEPINE]
- GI50 [1]: 2.04 µM (inactive)
- GI50 [2]: 2.31 µM (inactive)
- GI50 [3]: 1.97 µM
- GI50 [4]: 1.6 µM (inactive)
- GI50 [5]: 1.92 µM (inactive)
- GI50 [6]: 2.14 µM (inactive)
- GI50 [7]: 1.4 µM (inactive)
- GI50 [8]: 2.39 µM (inactive)
- GI50 [9]: 2.36 µM (inactive)
- GI50 [10]: 1.51 µM (inactive)
- GI50 [11]: 1.72 µM (inactive)
- GI50 [12]: 1.46 µM (inactive)
- GI50 [13]: 1.74 µM (inactive)
- GI50 [14]: 2.32 µM (inactive)
- GI50 [15]: 1.57 µM (inactive)
- GI50 [16]: 1.71 µM (inactive)
- GI50 [17]: 1.72 µM (inactive)
- GI50 [18]: 1.8 µM (inactive)
- GI50 [19]: 1.94 µM (inactive)

SMILES: O=C1CSC(c2ccccc2[N+](=O)[O-])N1c1ccc(-c2ccc(-n3c(-c4ccccc4)nc4ccccc4c3=O)cc2)cc1 (stereo not given)
- GI50 [1]: > 100 µM (inactive)
- GI50 [2]: > 100 µM (inactive)
- GI50 [3]: 74.3 µM
- GI50 [4]: > 100 µM (inactive)
- GI50 [5]: 75.5 µM (inactive)
- GI50 [6]: 71.3 µM (inactive)
- GI50 [7]: 29.9 µM (inactive)
- GI50 [8]: > 100 µM (inactive)
- GI50 [9]: > 100 µM (inactive)
- GI50 [10]: > 10 µM (inactive)
- GI50 [11]: 58.6 µM (inactive)
- GI50 [12]: > 100 µM (inactive)
- GI50 [13]: > 100 µM (inactive)
- GI50 [14]: > 100 µM (inactive)
- GI50 [15]: > 100 µM (inactive)
- GI50 [16]: > 100 µM (inactive)
- GI50 [17]: 86.5 µM (inactive)
- GI50 [18]: 18.4 µM (inactive)
- GI50 [19]: 67.3 µM (inactive)

SMILES: CC[P+]1(c2ccccc2)[C@@H](C)CC[C@@H]1C
- GI50 [1]: > 100 µM (inactive)
- GI50 [2]: > 100 µM (inactive)
- GI50 [3]: > 100 µM
- GI50 [4]: > 100 µM (inactive)
- GI50 [5]: > 100 µM (inactive)
- GI50 [6]: > 100 µM (inactive)
- GI50 [7]: > 100 µM (inactive)
- GI50 [8]: > 100 µM (inactive)
- GI50 [9]: 84.1 µM (inactive)
- GI50 [10]: > 100 µM (inactive)
- GI50 [11]: > 100 µM (inactive)
- GI50 [12]: 85.1 µM (inactive)
- GI50 [13]: > 100 µM (inactive)
- GI50 [14]: > 100 µM (inactive)
- GI50 [15]: > 100 µM (inactive)
- GI50 [16]: > 100 µM (inactive)
- GI50 [17]: > 100 µM (inactive)
- GI50 [18]: > 100 µM (inactive)
- GI50 [19]: 96.2 µM (inactive)
